Laboratory results: patent US8865705B2, “Benzimidazole respiratory syncytial virus inhibitors” (Janssen R&D Ireland, priority 2010, dated 2014)
Read-outs that look alike come from different tables or passages of the source.

Tests used:
[1] = system: rgRSV224 virus; experiment: microbe, parasite or virus in culture; format: cell-based, respiratory syncytial virus (RSV); settings: for EC50: read-out: WT activity EC50; for SI CC50/EC50: selectivity index, CC50 (HeLa cytotoxicity) over EC50 (rgRSV224)
Method: Black 96-well clear-bottom microtiter plates (Corning, Amsterdam, The Netherlands) were filled in duplicate using a customized robot system with serial 4-fold dilutions of compound in a final volume of 50 μl culture medium [RPMI medium without phenol red, 10% FBS, 0.04% gentamycin (50 mg/mL) and 0.5% DMSO]. Then, 100 μl of a HeLa cell suspension (5×10^4 cells/mL) in culture medium was added to each well followed by the addition of 50 μl rgRSV224 (MOI=0.02) virus in culture medium using a multidrop dispenser (Thermo Scientific, Erembodegem, Belgium). rgRSV224 virus is an engineered virus that includes an additional GFP gene (Hallak et al, 2000) and was in-licensed from the NIH (Bethesda, Md., USA). Medium, virus- and mock-infected controls were included in each test. Cells were incubated at 37° C. in a 5% CO2 atmosphere. Three days post-virus exposure, viral replication was quantified by measuring GFP expression in the cells by a MSM laser microscope (Tibotec, Beerse, Belgium). […] In parallel, compounds were incubated for three days in a set of white 96-well microtitier plates (Corning) and the cytotoxicity of compounds in HeLa cells was determined by measuring the ATP content of the cells using the ATPlite kit (PerkinElmer, Zaventem, Belgium) according to the manufacturer's instructions.

[2] = system: HeLa cells; experiment: Cytotoxicity in HeLa cells by ATP content (ATPlite kit); format: cell-based
Method: Black 96-well clear-bottom microtiter plates (Corning, Amsterdam, The Netherlands) were filled in duplicate using a customized robot system with serial 4-fold dilutions of compound in a final volume of 50 μl culture medium [RPMI medium without phenol red, 10% FBS, 0.04% gentamycin (50 mg/mL) and 0.5% DMSO]. Then, 100 μl of a HeLa cell suspension (5×10^4 cells/mL) in culture medium was added to each well followed by the addition of 50 μl rgRSV224 (MOI=0.02) virus in culture medium using a multidrop dispenser (Thermo Scientific, Erembodegem, Belgium). rgRSV224 virus is an engineered virus that includes an additional GFP gene (Hallak et al, 2000) and was in-licensed from the NIH (Bethesda, Md., USA). Medium, virus- and mock-infected controls were included in each test. Cells were incubated at 37° C. in a 5% CO2 atmosphere. Three days post-virus exposure, viral replication was quantified by measuring GFP expression in the cells by a MSM laser microscope (Tibotec, Beerse, Belgium). The EC50 was defined as the 50% inhibitory concentration for GFP expression. In parallel, compounds were incubated for three days in a set of white 96-well microtitier plates (Corning) and the cytotoxicity of compounds in HeLa cells was determined by measuring the ATP content of the cells using the ATPlite kit (PerkinElmer, Zaventem, Belgium) according to the manufacturer's instructions. The CC50 was defined as the 50% concentration for cytotoxicity.

[3] = Table 1, rgRSV224 in HeLa cells, GFP expression three days post-virus exposure
[4] = human respiratory syncytial virus, HeLa, 72 h
[5] = Table 2, rgRSV224 in HeLa cells, GFP expression three days post-virus exposure

Row | SMILES | EC50 [1, 3] [nM] | CC50 [2] [µM] | SI CC50/EC50 ([1]; Table 2) | EC50 [1, 4] [nM] | EC50 [1, 5] [nM]
1 | CS(=O)(=O)CCCn1c(Cn2c(=O)n(C3CC3)c3ccc(F)cc32)nc2cc(Br)ccc21 [P3] | 0.47 | > 9.84 |  |  | 
2 | O=c1n(Cc2nc3cc(Cl)ccc3n2CCCn2ccnc2)c2cnccc2n1C1CC1 [P51, 3-({5-chloro-1-[3-(1H-imidazol-1-yl)propyl]-1H-benzimidazol-2-yl}methyl)-1-cyclopropyl-1,3-dihydro-2H-imidazo[4,5-c]pyridin-2-one] |  |  | >401504 | 0.25 | 
3 | O=c1n(Cc2ccc(F)cc2)c2ccncc2n1Cc1nc2cc(Cl)ccc2n1CCCCF [P41] |  |  | 503466 |  | 0.16
4 | CS(=O)(=O)CCCn1c(Cn2c(=O)n(C3CC3)c3ccccc32)nc2cc(Cl)ccc21 [P24] | < 0.15 | > 9.84 |  |  | 
5 | CC(C)(C)C(=O)OCCCCn1c(Cn2c(=O)n(C3CC3)c3ccccc32)nc2cc(Cl)ccc21 [P19] | 2.59 | > 9.84 |  |  | 
6 | NC(=O)CCCn1c(Cn2c(=O)n(C3CC3)c3ccncc32)nc2cc(Br)ccc21 [P82] |  |  | >85761 |  | 0.58
7 | O=c1n(Cc2nc3cc(Cl)ccc3n2CCCc2ccccc2)c2cnccc2n1C1CC1 [P50] |  |  | 93799 |  | 0.23
8 | CS(=O)(=O)NCCCn1c(Cn2c(=O)n(C3CC3)c3ccncc32)nc2cc(Br)ccc21 [P9] | 0.21 | > 101 |  |  | 
9 | O=c1n(Cc2nc3cc(Cl)ccc3n2CCCNc2ncccn2)c2cnccc2n1C1CC1 [P44] |  |  | 302162 |  | 0.3
10 | O=C(CCCn1c(Cn2c(=O)n(C3CC3)c3ccncc32)nc2cc(Br)ccc21)N1CCOCC1 [P48, 3-((5-bromo-1-(4-morpholino-4-oxobutyl)-1H-benzo[d]imidazol-2-yl)-methyl)-1-cyclopropyl-1H-imidazo[4,5-c]pyridin-2(3H)-one] |  |  | >102584 | 0.97 | 
11 | O=C(O)CCCn1c(Cn2c(=O)n(C3CC3)c3ccncc32)nc2cc(Cl)ccc21 [P45, 4-(5-chloro-2-((1-cyclopropyl-2-oxo-1H-imidazo[4,5-c]pyridin-3(2H)-yl)methyl)-1H-benzo[d]imidazol-1-yl)butanoic acid] |  |  | D. >19412 | 5.15 | 
12 | CC(C)(C)OC(=O)Cn1c(=O)n(Cc2nc3cc(Cl)ccc3n2CCCCF)c2cnccc21 [P33, tert-butyl (3-{[5-chloro-1-(4-fluorobutyl)-1H-benzimidazol-2-yl]methyl}-2-oxo-2,3-dihydro-1H-imidazo[4,5-c]pyridin-1-yl)acetate] |  |  | >49120 | 1.9 | 
13 | CNC(=O)CCCn1c(Cn2c(=O)n(C3CC3)c3ccncc32)nc2cc(Br)ccc21 [P83] |  |  | >111709 |  | 0.9
14 | O=C(CCCn1c(Cn2c(=O)n(C3CC3)c3ccncc32)nc2cc(Br)ccc21)N1CCCCS1(=O)=O [P74] |  |  | >84529 |  | 1.18
15 | CS(=O)(=O)NC(=O)CCCn1c(Cn2c(=O)n(C3CC3)c3ccncc32)nc2cc(Br)ccc21 [P80] |  |  | >99444 |  | 1
16 | O=c1n(Cc2nc3cc(Cl)ccc3n2CCCCc2ccccn2)c2cnccc2n1C1CC1 [P47] |  |  | 84254 |  | 0.76
17 | N#CCCCn1c(Cn2c(=O)n(C3CC3)c3ccc(F)cc32)nc2cc(Cl)ccc21 [P73] |  |  | 23633 |  | 1.58
18 | CN(C(=O)CCCn1c(Cn2c(=O)n(C3CC3)c3ccncc32)nc2cc(Br)ccc21)S(C)(=O)=O [P79] |  |  | >177178 |  | 0.56
19 | O=C1c2ccccc2C(=O)N1CCCCn1c(Cn2c(=O)n(C3CC3)c3ccncc32)nc2cc(Cl)ccc21 [P46] |  |  | >44185 |  | 0.57
20 | NS(=O)(=O)NC(=O)CCCn1c(Cn2c(=O)n(C3CC3)c3ccncc32)nc2cc(Br)ccc21 [P76, 4-(5-bromo-2-((1-cyclopropyl-2-oxo-1H-imidazo[4,5-c]pyridin-3(2H)-yl)methyl)-1H-benzo[d]imidazol-1-yl)-N-sulfamoylbutanamide] |  |  | >214887 | 0.47 | 
21 | CS(=O)(=O)n1c(=O)n(Cc2nc3cc(Cl)ccc3n2CCCCF)c2cnccc21 [P34, 3-((5-chloro-1-(4-fluorobutyl)-1H-benzo[d]imidazol-2-yl)methyl)-1-(methylsulfonyl)-1H-imidazo[4,5-c]pyridin-2(3H)-one] |  |  | >1 048 580 | 0.09 | 

Row | SMILES | EC50 [1, 3] [nM] | CC50 [2] [µM] | SI CC50/EC50 ([1]; Table 2) | EC50 [1, 4] [nM] | EC50 [1, 5] [nM]
22 | CN(C(=O)CCCn1c(Cn2c(=O)n(C3CC3)c3ccncc32)nc2cc(Cl)ccc21)S(=O)(=O)C1CC1 [P59, 4-(5-chloro-2-((1-cyclopropyl-2-oxo-1H-imidazo[4,5-c]pyridin-3(2H)-yl)methyl)-1H-benzo[d]imidazol-1-yl)-N-(cyclopropylsulfonyl)-N-methylbutanamide] |  |  | >604770 | 0.17 | 
23 | CC(C)CCn1c(Cn2c(=O)n(C3CC3)c3ccc(F)cc32)nc2cc(Cl)ccc21 [P28] |  |  | 14563 |  | 2.32
24 | CCCCS(=O)(=O)NC(=O)CCCn1c(Cn2c(=O)n(C3CC3)c3ccncc32)nc2cc(Br)ccc21 [P81] |  |  | >13798 |  | 7.25
25 | O=C(CCn1c(Cn2c(=O)n(C3CC3)c3ccc(F)cc32)nc2cc(Cl)ccc21)N1CCOCC1 [P62] |  |  | >73334 |  | 1.36
26 | CC(C)(C)OC(=O)CCCn1c(Cn2c(=O)n(C3CC3)c3ccncc32)nc2cc(Cl)ccc21 [P52] |  |  | 70937 |  | 0.55
27 | CC(C)CCn1c(Cn2c(=O)n(C3CC3)c3ccc(F)cc32)nc2cc(Br)ccc21 [P32] |  |  | 25508 |  | 2.53
28 | O=C(CCCn1c(Cn2c(=O)n(C3CC3)c3ccncc32)nc2cc(Cl)ccc21)NS(=O)(=O)C1CC1 [P49, 4-(5-chloro-2-((1-cyclopropyl-2-oxo-1H-imidazo[4,5-c]pyridin-3 (2H)-yl)methyl)-1H-benzo[d]imidazol-1-yl)-N-(cyclopropylsulfonyl)butanamide] |  |  | >55412 | 1.8 | 
29 | O=c1n(Cc2nc3cc(Cl)ccc3n2CCCC(F)(F)F)c2cc(F)ccc2n1C1CC1 [P58] |  |  | 104559 |  | 0.49
30 | CC(C)CCn1c(Cn2c(=O)n(C3CC3)c3ccccc32)nc2cc(Cl)ccc21 [P35] |  |  | 33466 |  | 2.63
31 | O=C(CCCn1c(Cn2c(=O)n(C3CC3)c3ccncc32)nc2cc(Cl)ccc21)N1CCOCC1 [P63] |  |  | >98994 |  | 1
32 | O=C(CCn1c(Cn2c(=O)n(C3CC3)c3ccncc32)nc2cc(Cl)ccc21)N1CCOCC1 [P64] |  |  | >68795 |  | 1.45
33 | CN(C)C(=O)Cn1c(=O)n(Cc2nc3cc(Cl)ccc3n2CCCCF)c2cnccc21 [P71] |  |  | >39781 |  | 2.5
34 | N#CCCCn1c(Cn2c(=O)n(C3CC3)c3ccccc32)nc2cc(Cl)ccc21 [P70] |  |  | >159787 |  | 0.631
35 | CC(C)(C)OC(=O)Cn1c(=O)n(Cc2nc3cc(Cl)ccc3n2CCCC(F)(F)F)c2cnccc21 [P60] |  |  | >59486 |  | 1.68
36 | O=C(CCCn1c(Cn2c(=O)n(C3CC3)c3ccncc32)nc2cc(Br)ccc21)N1CCCS1(=O)=O [P75] |  |  | >444590 |  | 0.2
37 | O=c1n(Cc2nc3cc(Cl)ccc3n2CCCCF)c2cnccc2n1CC(F)F [P40] |  |  | 2000000 |  | 0.048
38 | O=c1n(Cc2nc3ccccc3n2CCCCO)c2cnccc2n1C1CC1 [Ref2, reference compound] |  |  |  |  | 3.98
39 | O=C(CCCn1c(Cn2c(=O)n(C3CC3)c3ccncc32)nc2cc(Br)ccc21)NCCS(=O)(=O)n1ccnc1 [P38] |  |  | >445390 |  | 0.22
40 | CS(=O)(=O)CCCn1c(Cn2c(=O)n(C3CC3)c3ccncc32)nc2ccccc21 [Ref1, reference compound] |  |  | >4315 |  | 2.5
41 | CCCS(=O)(=O)NC(=O)CCCn1c(Cn2c(=O)n(C3CC3)c3ccncc32)nc2cc(Br)ccc21 [P78] |  |  | >57893 |  | 1.73
42 | O=c1n(Cc2nc3cc(Cl)ccc3n2CCCCF)c2cnccc2n1C1CC1 [P31] |  |  | >267110 |  | 0.19
